# Like-named read-outs stand apart in the source and are kept apart here. No end group written: not given here.
# Assay: Pharmacokinetic study of AWRK6 in rats after intraperitoneal or intravenous injection, plasma LC-MS/MS
# Type: in vivo, rat
# Conditions: for AUC(0-inf) / Cmax / Tmax / CL/F / MRT / Vd/F / half-life / AUC(0-t) / bioavailability: rat; for CL/F: read-out: CLz/F (converted); for MRT: read-out: MRT(0–t); for Vd/F: read-out: Vz/F; for half-life: read-out: t1/2z (converted); for bioavailability: from AUC, read-out: F (absolute bioavailability)
# Method: The samples were analyzed on a LC-MS/MS system consisting of an Agilent 1290 Infinity II UHPLC System coupled with an Agilent 6460 Triple Quadrupole Mass Spectrometer with an electrospray ionisation source (ESI). The Agilent MassHunter Workstation Qualitative Analysis B.06.00 (Agilent Technologies, Santa Clara, CA, USA) software was used. Chromatographic separation was performed on a Supersil ODS2 column (4.6 mm × 250 mm, 5 μm, Dalian Elite Analytical Instruments, Dalian, China). The separation conditions were 30 °C by using a FA-ACN (0.1:99.9, v/v, A) and FA-water (0.1:99.9, v/v, B) solutions at a flow rate of 0.5 mL/min. The sample injection volume was 20 μL and the autosampler was kept at 4 °C. The initial eluent A-B (20:80, v/v) was changed to A-B (30:70, v/v) in 4 min and subsequently changed to A-B (90:10, v/v) in the next 3 min in a linear gradient form and maintained at this ratio for another 1 min. PMB was used as the IS. MS analysis was carried out in the multiple reaction monitoring (MRM) mode with following operation parameters: capillary voltage, 3.5 kV; gas temperature, 325 °C; nebulizer gas pressure, 35 psi; sheath gas, 11 L/min, 350 °C; fragmentor voltages, 155 V for AWRK6 and 75 V for IS; collision energy (CE), 80 eV for AWRK6 and 40 eV for IS; precursor-to-product ion transition, m/z: 533.3→84.1 for AWRK6 and m/z: 402.1→101.1 for IS.
# The AWRK6 and IS were dissolved in water at 1.0 mg/mL for stock solution. The AWRK6 calibration standards at 0.05, 0.1, 0.5, 1, 2, 5, and 10 μg/mL were prepared by mixing 50 μL of working solution and 100 μL of blank plasma individually. QC samples of AWRK6 at 0.1, 0.5, and 5 μg/mL were prepared by the same method. The thawed plasma samples (100 μL) were mixed with 50 μL water (or QC), 50 μL IS (1 μg/mL), and 20 μL FA-water (25:75, v/v). A combination of plasma precipitation and liquid–liquid extraction was applied for the extraction of AWRK6 in samples. After adding 200 μL methanol and 100 μL dichloromethane, the mixtures were vortexed for 30 s and centrifuged at 14,000 g for 10 min. The supernatant was filtered by 0.22 μm membrane for LC-MS/MS analysis.
# SPF-grade male Sprague Dawley rats (280–320 g, 8 weeks old) were purchased from Liaoning Changsheng Biotechology (Liaoning, China). The rats were housed under a controlled environment (temperature: 25 ± 2 °C; relative humidity: 55 ± 10%; alternating natural light/dark cycles) with free access to food and water unless otherwise noted. The study was approved by the Laboratory Animal Welfare and Ethical Review Board of China Medical University (CMU2019089, 8 March 2019). According to the previous study, the rats was administrated with AWRK6 dissolved in saline intraperitoneally at 2.35, 4.7, and 9.4 mg/kg bodyweight and intravenously at 4.7 mg/kg after being fasted for 12 h. The intravenous doing was administered via the tail vein of the rats. Blood samples were collected from orbital venous plexus at 0.083, 0.167, 0.25, 0.5, 1, 1.5, 2, 3, 4, 6, 8, and 10 h using heparin tubes after administration, followed by centrifugation at 4000 g for 10 min at 4 °C and storage at −80 °C. The obtained data were analyzed using DAS 2.0 software (Anhui Provincial Center for Drug Clinical Evaluation). The absolute bioavailability of AWRK6 for intraperitoneal administration was calculated by the following formula:(1) F=AUCi.p.×Di.v./Di.p.×AUCi.v.×100%
# [1] = male Sprague Dawley rats, single i.v. 4.700 mg/kg (tail vein), plasma, LC-MS/MS, mean ± SD, n = 6
# [2] = ip, 2.35 mg/kg, male Sprague Dawley rats, single i.p. 2.350 mg/kg, plasma, LC-MS/MS, mean ± SD, n = 6
# [3] = ip, 4.7 mg/kg, male Sprague Dawley rats, single i.p. 4.700 mg/kg, plasma, LC-MS/MS, mean ± SD, n = 6
# [4] = ip, 9.4 mg/kg, male Sprague Dawley rats, single i.p. 9.400 mg/kg, plasma, LC-MS/MS, mean ± SD, n = 6
# [5] = iv, 4.7 mg/kg, male Sprague Dawley rats, single i.v. 4.700 mg/kg (tail vein), plasma, LC-MS/MS, mean ± SD, n = 6
# [6] = rats, two-compartment model, weight coefficient of 1, DAS 2.0
substance,measurement,setting,value
SWVGKHGKKFGLKKHKKH-NH2 (C-terminus assumed) [AWRK6],VRT(0–t),"male Sprague Dawley rats, single i.p. 2.350 mg/kg, plasma, LC-MS/MS, mean ± SD, n = 6",2.549 ± 1.480 h^2
same,VRT(0–t),"male Sprague Dawley rats, single i.p. 4.700 mg/kg, plasma, LC-MS/MS, mean ± SD, n = 6",3.859 ± 0.904 h^2
same,VRT(0–t),"male Sprague Dawley rats, single i.p. 9.400 mg/kg, plasma, LC-MS/MS, mean ± SD, n = 6",4.366 ± 1.439 h^2
same,CLz/F,[1],28.32 ± 3.65 mL/min/kg
same,Vz/F,[1],4.884 ± 1.736 L/kg
same,AUC(0-inf),[2],851 ± 221 ng·h/mL
same,Cmax,[2],217 ± 10 ng/mL
same,Tmax,[2],1.17 ± 0.258 h
same,CL/F,[2],48 mL/min/kg
same,MRT,[2],2.26 ± 0.488 h
same,Vd/F,[2],10.9 ± 3.96 L/kg
same,half-life,[2],2.95 ± 2.05 h
same,AUC(0-inf),[3],1590 ± 275 ng·h/mL
same,AUC(0-t),[3],1360 ± 176 ng·h/mL
same,Cmax,[3],454 ± 48 ng/mL
same,Tmax,[3],1.25 ± 0.274 h
same,CL/F,[3],50.6 mL/min/kg
same,MRT,[3],2.49 ± 0.227 h
same,Vd/F,[3],12.3 ± 4.85 L/kg
same,half-life,[3],2.94 ± 1.4 h
same,AUC(0-inf),[4],2910 ± 356 ng·h/mL
same,AUC(0-t),[4],2630 ± 236 ng·h/mL
same,Cmax,[4],888 ± 46 ng/mL
same,Tmax,[4],1.21 ± 0.217 h
same,CL/F,[4],54.4 mL/min/kg
same,MRT,[4],2.52 ± 0.292 h
same,Vd/F,[4],12.7 ± 3.37 L/kg
same,half-life,[4],2.78 ± 1.02 h
same,AUC(0-inf),[5],2800 ± 333 ng·h/mL
same,AUC(0-t),[5],2600 ± 277 ng·h/mL
same,Cmax,[5],2130 ± 174 ng/mL
same,MRT,[5],1.73 ± 0.261 h
same,half-life,[5],1.98 ± 0.583 h
same,bioavailability,"plasma, ip, 2.35 mg/kg, male Sprague Dawley rats, i.p. 2.350 mg/kg versus i.v. 4.700 mg/kg",48.8%
same,bioavailability,"plasma, ip, 4.7 mg/kg, male Sprague Dawley rats, i.p. 4.700 mg/kg versus i.v. 4.700 mg/kg",52.5%
same,bioavailability,"plasma, ip, 9.4 mg/kg, male Sprague Dawley rats, i.p. 9.400 mg/kg versus i.v. 4.700 mg/kg",50.6%
same,time after which plasma concentration was below the LLOQ,"rats, after intraperitoneal injection, LLOQ 0.050 μg/mL",~10 h
same,time at which AWRK6 in plasma was cleared,"rats, after intravenous injection 4.7 mg/kg",about 10 h
same,time at which AWRK6 concentrations in rat plasma peaked,"rats, intraperitoneal injections at 2.35, 4.7 and 9.4 mg/kg bodyweight",about 1.2 h
same,transport rate constant K12,[6],2.55 h⁻¹
same,transport rate constant K21,[6],1.67 h⁻¹
